In patent US4130647A, “Methods for treating congestive heart failure and ischemic heart disease” (priority 1977, dated 1978):

Key:
[1] = tested on: patients with essential hypertension; details: cited from earlier work
[2] = tested on: patients with chronic left sided congestive heart failure; assay: Resting and exercise blood pressure, heart rate, ST-segment depression and cardiothoracic ratio, trimazosin (Example 3); assay type: in vivo, human; details: for Cardiothoracic ratio / Exercise diastolic blood pressure / Exercise heart rate / Exercise systolic blood pressure / Exercise systolic pressure times heart rate/100 / Maximal ST-segment depression below resting level / Resting diastolic blood pressure / Resting heart rate / Resting systolic blood pressure / Resting systolic pressure times heart rate/100: mean
Text: Sixteen men between 41 and 66 years of age with chronic left sided congestive heart failure were subjects. Twelve patients had coronary heart disease with an old healed myocardial infarction, one patient had alcoholic cardiomyopathy, and three patients had idiopathic cardiomyopathy as the cause of their chronic heart failure. All 16 patients had cardiomegaly on physical examination and on their chest roentgenogram, a left ventricular third heart sound heard by auscultation, and evidence of pulmonary venous congestion on their chest roentgenogram. Their baseline standing blood pressures ranged between 114 and 150 mm. Hg. systolic and 72 and 100 mm. Hg. diastolic.
After baseline measurements, all 16 patients received one capsule of single-blind placebo three times daily for two weeks. The patients then received in a double-blind, randomized study trimazosin or placebo for six weeks. Eight patients received one placebo capsule three times daily for weeks one and two, two placebo capsules three times daily for weeks three and four, and three placebo capsules three times daily for weeks five and six of the double-blind period. Seven patients received one 50 mg. trimazosin capsule three times daily for weeks one and two, two 50 mg. trimazosin capsules three times daily for weeks three and four, and three 50 mg. trimazosin capsules three times daily for weeks five and six of the double-blind period. One patient (patient number five on trimazosin) received one 50 mg. trimazosin capsule three times daily for 32 days.
The patients were seen by one of the investigators, questioned for symptoms, and given a physical examination in the baseline period, at the end of two weeks of single-blind placebo, and at the end of weeks one, two, three, four, five, and six on double-blind medication. A standard 12-lead electrocardiogram and PA and lateral chest roentgenograms were taken in the baseline period, at the end of two weeks of single-blind placebo, and at the end of three weeks and six weeks on double-blind medication.
Two practice treadmill tests were performed by all patients prior to the baseline period. The patients performed a multi-stage uninterrupted treadmill exercise test until the onset of marked dyspnea in the baseline period, and approximately two hours after their morning dose of medication after two weeks of single-blind placebo, after three weeks of double-blindmedication, and after six weeks of double-blind medication. The patients exercised at a treadmill speed of 1.7 m.p.h. and a treadmill grade of 0% for the first 3 min., a treadmill speed of 1.7 m.p.h. and a treadmill grade of 10% for the next 3 min., at a treadmill speed of 2.5 m.p.h. and a treadmill grade of 12% for the third 3 min. period, and then at a treadmill speed of 3.4 m.p.h. and a treadmill grade of 14%.
The patients were monitored by telemetry with simultaneous leads II and V5 throughout exercise. […] blood pressures were recorded with the patients in the sitting and standing positions immediately before exercise, with the patients in the standing position at the end of each completed stage of exercise and at the end of exercise, and with the patients in the sitting and standing positions every 1 min. for at least 5 min. after the end of exercise. Blood pressures were recorded with a mercury sphygmomanometer. The heart rates were measured from the electrocardiographic recordings.
The data listed in Tables 1-4 were analyzed using Student's t test for independent means. Fisher's exact test was used to analyze the data on improvement of symptoms and the data on changes in roentgenographic evidence of pulmonary venous congestion.

[3] = single oral doses of 50 to 150 mg.
[4] = patient number five, four days prior to the myocardial infarction

## COc1cc2c(N)nc(N3CCN(C(=O)OCC(C)(C)O)CC3)nc2c(OC)c1OC [trimazosin, 2-hydroxy-2-methylpropyl 4-(4-amino-6,7,8-trimethoxy-2-quinazolinyl)-1-piperazinecarboxylate]
[1]; hypertensives without heart failure
  Heart Rate: does not increase heart rate
[1]; [3]
  blood pressure: significantly lower blood pressure
  effect on heart rate: No significant effects
  effect on plasma renin activity: No significant effects
  side effect: Mild transient dizziness
  time of peak effect: between one and four hours
  time until effect was apparent: ≤ 30 min
[2]; 3 weeks, p<0.001
  resting systolic blood pressure, change compared with placebo: significant decrease
[2]; 3 weeks, p<0.005
  resting product of systolic blood pressure times heart rate, change compared with placebo: significant decrease
[2]; 3 weeks, p<0.025
  resting diastolic blood pressure, change compared with placebo: significant decrease
[2]; 6 weeks, p<0.005
  diastolic blood pressure at the end of exercise, change compared with placebo: significant decrease
  resting diastolic blood pressure, change compared with placebo: significant decrease
  resting systolic blood pressure, change compared with placebo: significant decrease
[2]; 6 weeks, p<0.01
  resting product of systolic blood pressure times heart rate, change compared with placebo: significant decrease
[2]; patient number five, after two weeks of 50 mg. three times daily
  standing systolic blood pressure: 104/70
[2]; [4]
  blood pressure, standing position: 104/70
  blood pressure, supine position: 106/70
[2]; trimazosin 3 weeks
  Cardiothoracic ratio: 0.559
  Exercise diastolic blood pressure: 84.8 mm Hg
  Exercise heart rate: 149.3 beats/min
  Exercise systolic blood pressure: 156.5 mm Hg
  Exercise systolic pressure times heart rate/100: 236.4
  Maximal ST-segment depression below resting level: 1.31 mm
  Resting diastolic blood pressure: 74.3 mm Hg
  Resting heart rate: 86.3 beats/min
  Resting systolic blood pressure: 116.0 mm Hg
  Resting systolic pressure times heart rate/100: 100.0
[2]; trimazosin 6 weeks
  Cardiothoracic ratio: 0.556
  Exercise diastolic blood pressure: 80.5 mm Hg
  Exercise heart rate: 151.0 beats/min
  Exercise systolic blood pressure: 154.3 mm Hg
  Exercise systolic pressure times heart rate/100: 235.4
  Maximal ST-segment depression below resting level: 1.31 mm
  Resting diastolic blood pressure: 72.5 mm Hg
  Resting heart rate: 86.5 beats/min
  Resting systolic blood pressure: 112.0 mm Hg
  Resting systolic pressure times heart rate/100: 96.9
